Target: Tyrosine-protein kinase Lyn (Homo sapiens) (UniProt P07948)
Test: LYN B kinase inhibition, dose response, biochemical, LYN B isoform, Z'-LYTE, FRET readout (AID 1671319)
Settings: Z'-LYTE FRET kinase assay, recombinant LYN B

Chain of Tyrosine-protein kinase Lyn (Homo sapiens) (P07948 whole entry, looked up, canonical isoform): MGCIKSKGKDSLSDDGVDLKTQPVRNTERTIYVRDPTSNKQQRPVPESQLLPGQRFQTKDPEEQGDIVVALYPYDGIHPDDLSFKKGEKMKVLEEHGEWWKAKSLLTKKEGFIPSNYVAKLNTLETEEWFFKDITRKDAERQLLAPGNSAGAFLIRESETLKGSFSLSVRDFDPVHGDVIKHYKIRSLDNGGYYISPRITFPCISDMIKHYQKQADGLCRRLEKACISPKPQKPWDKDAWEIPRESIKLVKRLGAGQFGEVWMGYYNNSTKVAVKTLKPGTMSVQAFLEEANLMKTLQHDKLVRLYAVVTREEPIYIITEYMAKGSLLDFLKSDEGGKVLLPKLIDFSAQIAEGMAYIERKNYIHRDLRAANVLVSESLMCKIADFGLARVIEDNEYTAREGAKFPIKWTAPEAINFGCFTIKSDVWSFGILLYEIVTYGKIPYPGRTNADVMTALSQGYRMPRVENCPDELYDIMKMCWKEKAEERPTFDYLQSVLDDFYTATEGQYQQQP

SMILES: COc1cc2ncnc(Nc3cccc(Cl)c3)c2cc1OC
- IC50: 244 nM

Source: PubChem BioAssay AID1671319
